IC50 data for 15 compounds are collected here from US12172983B2, “EGFR inhibitors” (Blueprint Medicines Corporation, priority 2019, dated 2024).

Assay [1] concerns phosphorylation of EGFR (Tyr1068) in NCI-H1975 cell line that harbors the EGFR L858R T790M mutations. Kind of assay: NCI-H1975 pEGFR AlphaLISA assay. The class given is cell-based. The settings on record: 4-5 hours incubation, read-out: Ext pEGFR H1975. The essentials:
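Phospho-EGFR Tyr1068 AlphaLISA readout: lysates taken from compound-treated H1975 cells (L858R T790M EGFR) after a 4-5 h exposure at 37 °C. Cells had adhered overnight beforehand. IC50 derived by plotting % pEGFR inhibition against log compound concentration.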

A further assay has as its target T1, EGFR (L858R T790M C797S) (Homo sapiens, UniProt P00533, C797S/L858R/T790M).
T1 construct: purchased SignalChem E10-122VG
Nature of the assay: Biochemical EGFR inhibition assay (Caliper mobility shift), EGFR LRTMCS mutant. Particulars: inhibitory activity against EGFR LRTMCS mutant; apparent IC50; read-out: Ext Enz LRTMCS. The essentials: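 Each enzyme was allowed to phosphorylate 10–20% of its peptide at 25° C. before EDTA (35 mM) quench. Separated substrate and product peaks were measured by mobility shift, giving apparent IC50 values.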

Where [2] appears, read: Homo sapiens, NCI-H1975, inhibition of phosphorylation of mutant EGFR in NCI-H1975 cells.
[3] abbreviates: inhibition of phosphorylation of mutant EGFR in NCI-H1975 cells.

pIC50: −log10 of the molar value. Like-named read-outs stand apart in the source and are kept apart here.

On to `CO[C@@H]1CCN(c2nccc(Nc3cc4c(C(C)C)ccc(N5C[C@H](CS(C)(=O)=O)[C@H]5C)c4cn3)n2)C[C@@H]1OCCO` (single isomer, unassigned) [Compound 296, 2-{[(3S,4R)-1-[4-({8-[(2R,3S)-3-(methanesulfonylmethyl)-2-methylazetidin-1-yl]-5-(propan-2-yl)isoquinolin-3-yl}amino)pyrimidin-2-yl]-4-methoxypiperidin-3-yl]oxy}ethan-1-ol or 2-{[(3R,4S)-1-[4-({8-[(2R,3S)-3-(methanesulfonylmethyl)-2-methylazetidin-1-yl]-5-(propan-2-yl)isoquinolin-3-yl}amino)pyrimidin-2-yl]-4-methoxypiperidin-3-yl]oxy}ethan-1-ol], for which the pIC50 in assay [1] (setting [2]) was 7.70 to 8.00; at EGFR (L858R T790M C797S), 7.00 to 7.52.
For the compound “(S)-ethyl({1-[3-({2-[(3S,4R)-3-fluoro-4-methoxypiperidin-1-yl]pyrimidin-4-yl}amino)-5-(propan-2-yl)isoquinolin-8-yl]azetidin-3-yl}methyl)imino-λ^6-sulfanone or (R)-ethyl({1-[3-({2-[(3S,4R)-3-fluoro-4-methoxypiperidin-1-yl]pyrimidin-4-yl}amino)-5-(propan-2-yl)isoquinolin-8-yl]azetidin-3-yl}methyl)imino-λ^6-sulfanone [Compound 273]”, the pIC50 is 7.52 to 7.70 in assay [1] (setting [3]) and no less than 7.82 at EGFR (L858R T790M C797S).
`CC(C)c1ccc(N2C[C@H](CS(C)(=O)=O)[C@H]2C)c2cnc(Nc3ccnc(N4CCC(C)(O)CC4)n3)cc12` (single isomer, unassigned) [Compound 46]: the pIC50 was no less than 8.00 in assay [1] (setting [2]) and no less than 7.82 on EGFR (L858R T790M C797S).
In the same order, the values of `CO[C@H]1CCN(c2nccc(Nc3cc4c([C@@H](C)CO)cnc(N5C[C@H](CS(C)(=O)=O)[C@H]5C)c4cn3)n2)C[C@H]1F` (single isomer, unassigned) [Compound 208, (2R)-2-[6-({2-[(3R,4S)-3-fluoro-4-methoxypiperidin-1-yl]pyrimidin-4-yl}amino)-1-[(2R,3S)-3-(methanesulfonylmethyl)-2-methylazetidin-1-yl]-2,7-naphthyridin-4-yl]propan-1-ol or (2S)-2-[6-({2-[(3R,4S)-3-fluoro-4-methoxypiperidin-1-yl]pyrimidin-4-yl}amino)-1-[(2R,3S)-3-(methanesulfonylmethyl)-2-methylazetidin-1-yl]-2,7-naphthyridin-4-yl]propan-1-ol] are 7.70 to 8.00 and no less than 7.82.
For `CC(C)c1ccc(N2C[C@H](CS(C)(=O)=O)[C@H]2C)c2cnc(Nc3ccnc(N4C[C@@H](F)[C@@H](O)[C@](C)(F)C4)n3)cc12` (single isomer, unassigned) [Compound 212, (3R,4R,5R)-3,5-difluoro-1-[4-({8-[(2R,3S)-3-(methanesulfonylmethyl)-2-methylazetidin-1-yl]-5-(propan-2-yl)isoquinolin-3-yl}amino)pyrimidin-2-yl]-3-methylpiperidin-4-ol or (3S,4S,5S)-3,5-difluoro-1-[4-({8-[(2R,3S)-3-(methanesulfonylmethyl)-2-methylazetidin-1-yl]-5-(propan-2-yl)isoquinolin-3-yl}amino)pyrimidin-2-yl]-3-methylpiperidin-4-ol] the same measures were no less than 8.00 and no less than 7.82.
Consider `CCS(=O)(=O)CC1CN(c2ccc(C(C)C)c3cc(Nc4cnnc(N5CC[C@@H](OC)[C@@H](F)C5)n4)ncc23)C1` [Compound 280, 8-{3-[(ethanesulfonyl)methyl]azetidin-1-yl}-N-{3-[(3S,4R)-3-fluoro-4-methoxypiperidin-1-yl]-1,2,4-triazin-5-yl}-5-(propan-2-yl)isoquinolin-3-amine], for which the pIC50 in assay [1] (setting [2]) is no less than 8.00; on EGFR (L858R T790M C797S) it was no less than 7.82.
For `COCCO[C@@H]1CCN(c2nccc(Nc3cc4c(C(C)C)ccc(N5C[C@H](CS(C)(=O)=O)[C@H]5C)c4cn3)n2)C[C@@H]1F` (single isomer, unassigned) [Compound 245] the same measures were no less than 8.00 and no less than 7.82.
In the same order, the values of `CO[C@@H]1CCN(c2nccc(Nc3cc4c(C(C)C)ccc(N5C[C@H](CS(C)(=O)=O)[C@H]5C)c4cn3)n2)C[C@H]1CO` (single isomer, unassigned) [Compound 174, [(3S,4R)-1-[4-({8-[(2R,3S)-3-(methanesulfonylmethyl)-2-methylazetidin-1-yl]-5-(propan-2-yl)isoquinolin-3-yl}amino)pyrimidin-2-yl]-4-methoxypiperidin-3-yl]methanol or [(3R,4S)-1-[4-({8-[(2R,3S)-3-(methanesulfonylmethyl)-2-methylazetidin-1-yl]-5-(propan-2-yl)isoquinolin-3-yl}amino)pyrimidin-2-yl]-4-methoxypiperidin-3-yl]methanol] are 7.70 to 8.00 and no less than 7.82.
In the case of `CC(C)c1ncc(N2C[C@H](CS(C)(=O)=O)[C@H]2C)c2cnc(Nc3ccnc(N4CC[C@H]5COC[C@H]54)n3)cc12` (single isomer, unassigned) [Compound 267, N-(2-((3aR,6aS)-hexahydro-1H-furo[3,4-b]pyrrol-1-yl)pyrimidin-4-yl)-5-isopropyl-8-((2R,3S)-2-methyl-3-((methylsulfonyl)methyl)azetidin-1-yl)-2,6-naphthyridin-3-amine or N-(2-((3aS,6aR)-hexahydro-1H-furo[3,4-b]pyrrol-1-yl)pyrimidin-4-yl)-5-isopropyl-8-((2R,3S)-2-methyl-3-((methylsulfonyl)methyl)azetidin-1-yl)-2,6-naphthyridin-3-amine], the pIC50 in assay [1] (setting [2]) was no less than 8.00; on EGFR (L858R T790M C797S), no less than 7.82.
Turning to `CC(C)c1ccc(N2C[C@H](CS(C)(=O)=O)[C@H]2C)c2cnc(Nc3ccnc(N4CC[C@H](OCCN(C)C)[C@H](F)C4)n3)cc12` [Compound 253, N-{2-[(3R,4S)-4-[2-(dimethylamino)ethoxy]-3-fluoropiperidin-1-yl]pyrimidin-4-yl}-8-[(2R,3S)-3-(methanesulfonylmethyl)-2-methylazetidin-1-yl]-5-(propan-2-yl)isoquinolin-3-amine], the pIC50 in assay [1] (setting [2]) is no less than 8.00; on EGFR (L858R T790M C797S), no less than 7.82.
For `CC(C)c1ncc(N2C[C@H](CS(C)(=O)=O)[C@H]2C)c2cnc(Nc3ccnc(N4CC[C@](C)(O)[C@H](F)C4)n3)cc12` (single isomer, unassigned) [Compound 136] the same measures were 7.70 to 8.00 and no less than 7.82.
For `CCS(=O)(=O)CC1CN(c2ccc(C(C)C)c3cc(Nc4ccnc(N5CC[C@@H](OCCO)[C@@H](F)C5)n4)ncc23)C1` [Compound 292, 2-{[(3S,4R)-1-{4-[(8-{3-[(ethanesulfonyl)methyl]azetidin-1-yl}-5-(propan-2-yl)isoquinolin-3-yl)amino]pyrimidin-2-yl}-3-fluoropiperidin-4-yl]oxy}ethan-1-ol] the same measures were no less than 8.00 and no less than 7.82.
Take `CO[C@H]1CCN(c2nccc(Nc3cc4c(C(C)C)cnc(N5C[C@H](CS(C)(=O)=O)[C@H]5C)c4cn3)n2)C[C@H]1F` [Compound 131, N-{2-[(3R,4S)-3-fluoro-4-methoxypiperidin-1-yl]pyrimidin-4-yl}-8-[(2R,3S)-3-(methanesulfonylmethyl)-2-methylazetidin-1-yl]-5-(propan-2-yl)-2,7-naphthyridin-3-amine]: the pIC50 in assay [1] (setting [2]) is no less than 8.00; at EGFR (L858R T790M C797S), no less than 7.82.
On to `CO[C@H]1CCN(c2nccc(Nc3cc4c(C(C)C)cnc(N5CC(C[S@@](C)(=N)=O)[C@H]5C)c4cn3)n2)C[C@H]1F` (single isomer, unassigned) [Compound 107, (1S)-(((2R)-1-(6-((2-((3R,4S)-3-fluoro-4-methoxypiperidin-1-yl)pyrimidin-4-yl)amino)-4-isopropyl-2,7-naphthyridin-1-yl)-2-methylazetidin-3-yl)methyl)(imino)(methyl)-λ^6-sulfanone or (1R)-(((2R)-1-(6-((2-((3R,4S)-3-fluoro-4-methoxypiperidin-1-yl)pyrimidin-4-yl)amino)-4-isopropyl-2,7-naphthyridin-1-yl)-2-methylazetidin-3-yl)methyl)(imino)(methyl)-λ^6-sulfanone], for which the pIC50 is 7.70 to 8.00 in assay [1] (setting [3]) and no less than 7.82 on EGFR (L858R T790M C797S).
For `CO[C@H]1CCN(c2nccc(Nc3cc4c(C(C)C)ccc(N5C[C@H](CS(C)(=O)=O)[C@H]5C)c4cn3)n2)C[C@H]1C#N` (single isomer, unassigned) [Compound 165, (3R,4R)-1-[4-({8-[(2R,3S)-3-(methanesulfonylmethyl)-2-methylazetidin-1-yl]-5-(propan-2-yl)isoquinolin-3-yl}amino)pyrimidin-2-yl-4-methoxypiperidine-3-carbonitrile or (3S,4S)-1-[4-({8-[(2R,3S)-3-(methanesulfonylmethyl)-2-methylazetidin-1-yl]-5-(propan-2-yl)isoquinolin-3-yl}amino)pyrimidin-2-yl]-4-methoxypiperidine-3-carbonitrile] the same measures were 7.52 to 7.70 and no less than 7.82.
